Measured values reported in ChEMBL document CHEMBL1201862, “PubChem BioAssay data set” (2004).
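Exposure lasted 48 hours, with cells grown in 96-well plates and compounds tested at five concentrations. Here, GI50 denotes the concentration required for 50% inhibition of growth.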 Activity calls are given as the source filed them. No stated cut-off is given here; in the data, active = GI50 up to about 1.1 µM and inactive = higher.

Tests used:
Test in all cases: NCI anticancer screen, dose series, 48 h
786-0 = test system: 786-0
ACHN = test system: ACHN
CCRF-CEM = test system: CCRF-CEM
DU-145 = test system: DU-145
HCC 2998 = test system: HCC 2998
HCT-116 = test system: HCT-116
HOP-92 = test system: HOP-92
Hs-578T = test system: Hs-578T
K562 = test system: K562
LOX IMVI = test system: LOX IMVI
M14 = test system: M14
MCF7 = test system: MCF7
MOLT-4 = test system: MOLT-4
OVCAR-3 = test system: OVCAR-3
OVCAR-5 = test system: OVCAR-5
PC-3 = test system: PC-3
SF-268 = test system: SF-268
SF-295 = test system: SF-295
SNB-19 = test system: SNB-19
SNB-75 = test system: SNB-75

O=C(CCc1ccccc1)On1c(-c2ccccc2)nc2ccccc2c1=S
GI50 (786-0): 2.06 µM (inactive)
GI50 (ACHN): 5.69 µM (inactive)
GI50 (CCRF-CEM): 1.77 µM (inactive)
GI50 (DU-145): 9.71 µM (inactive)
GI50 (HCC 2998): 4.52 µM (inactive)
GI50 (HCT-116): 2.01 µM (inactive)
GI50 (HOP-92): 42.7 µM (inactive)
GI50 (Hs-578T): 13.1 µM (inactive)
GI50 (K562): 4.6 µM (inactive)
GI50 (LOX IMVI): 0.456 µM (active)
GI50 (M14): 5.57 µM (inactive)
GI50 (MCF7): 4.54 µM (inactive)
GI50 (MOLT-4): 0.455 µM (active)
GI50 (OVCAR-3): 4.99 µM (inactive)
GI50 (OVCAR-5): 18.9 µM (inactive)
GI50 (PC-3): 4.73 µM (inactive)
GI50 (SF-268): 3.07 µM (inactive)
GI50 (SF-295): 3.99 µM (inactive)
GI50 (SNB-19): 14.8 µM (inactive)
GI50 (SNB-75): 9.77 µM (inactive)

CC(C)(Oc1ccc(Cl)cc1)C(=O)N(C(=O)N1CCN(c2ccccc2)CC1)c1ccccc1
GI50 (786-0): 28.4 µM (inactive)
GI50 (ACHN): 9.71 µM (inactive)
GI50 (CCRF-CEM): 7.1 µM (inactive)
GI50 (DU-145): > 100 µM (inactive)
GI50 (HCC 2998): 92.5 µM (inactive)
GI50 (HCT-116): 4.06 µM (inactive)
GI50 (HOP-92): > 100 µM (inactive)
GI50 (Hs-578T): > 100 µM (inactive)
GI50 (K562): 3.96 µM (inactive)
GI50 (LOX IMVI): > 100 µM (inactive)
GI50 (M14): 45.7 µM (inactive)
GI50 (MCF7): 8.59 µM (inactive)
GI50 (MOLT-4): 4.12 µM (inactive)
GI50 (OVCAR-3): 26.7 µM (inactive)
GI50 (OVCAR-5): > 100 µM (inactive)
GI50 (PC-3): 4.78 µM (inactive)
GI50 (SF-268): > 100 µM (inactive)
GI50 (SF-295): 33.2 µM (inactive)
GI50 (SNB-19): > 100 µM (inactive)
GI50 (SNB-75): > 100 µM (inactive)

c1ccc(N/N=N/c2ccc(-c3nc4ccccc4o3)cc2)nc1
GI50 (786-0): 91.8 µM (inactive)
GI50 (ACHN): 52.2 µM (inactive)
GI50 (DU-145): 43.6 µM (inactive)
GI50 (HCC 2998): 20 µM (inactive)
GI50 (HCT-116): 39.8 µM (inactive)
GI50 (HOP-92): 54.6 µM (inactive)
GI50 (Hs-578T): 77.8 µM (inactive)
GI50 (K562): 42.9 µM (inactive)
GI50 (LOX IMVI): 37.2 µM (inactive)
GI50 (M14): 60.7 µM (inactive)
GI50 (MCF7): 35.6 µM (inactive)
GI50 (MOLT-4): 21.6 µM (inactive)
GI50 (OVCAR-3): 27.3 µM (inactive)
GI50 (OVCAR-5): > 100 µM (inactive)
GI50 (PC-3): 30.1 µM (inactive)
GI50 (SF-268): 83.6 µM (inactive)
GI50 (SNB-19): 75.2 µM (inactive)
GI50 (SNB-75): 20.4 µM (inactive)

Nc1c(Br)cc(-c2nc3ccccc3s2)cc1Br
GI50 (786-0): > 100 µM (inactive)
GI50 (ACHN): > 100 µM (inactive)
GI50 (CCRF-CEM): > 100 µM (inactive)
GI50 (DU-145): > 100 µM (inactive)
GI50 (HCC 2998): 30.6 µM (inactive)
GI50 (HCT-116): > 100 µM (inactive)
GI50 (HOP-92): > 100 µM (inactive)
GI50 (Hs-578T): > 100 µM (inactive)
GI50 (K562): > 100 µM (inactive)
GI50 (M14): > 100 µM (inactive)
GI50 (MCF7): 18.9 µM (inactive)
GI50 (MOLT-4): > 100 µM (inactive)
GI50 (OVCAR-3): > 100 µM (inactive)
GI50 (OVCAR-5): > 100 µM (inactive)
GI50 (PC-3): > 100 µM (inactive)
GI50 (SF-268): > 100 µM (inactive)
GI50 (SF-295): > 100 µM (inactive)
GI50 (SNB-19): > 100 µM (inactive)
GI50 (SNB-75): > 100 µM (inactive)

O=C(O)/C(=C\c1ccccc1)Cc1ccccc1
GI50 (786-0): > 100 µM (inactive)
GI50 (ACHN): > 100 µM (inactive)
GI50 (CCRF-CEM): > 100 µM (inactive)
GI50 (DU-145): > 100 µM (inactive)
GI50 (HCC 2998): > 100 µM (inactive)
GI50 (HCT-116): > 100 µM (inactive)
GI50 (HOP-92): > 100 µM (inactive)
GI50 (Hs-578T): > 100 µM (inactive)
GI50 (K562): > 100 µM (inactive)
GI50 (LOX IMVI): > 100 µM (inactive)
GI50 (M14): > 100 µM (inactive)
GI50 (MCF7): > 100 µM (inactive)
GI50 (MOLT-4): > 100 µM (inactive)
GI50 (OVCAR-3): > 100 µM (inactive)
GI50 (OVCAR-5): > 100 µM (inactive)
GI50 (PC-3): > 100 µM (inactive)
GI50 (SF-268): > 100 µM (inactive)
GI50 (SF-295): > 100 µM (inactive)
GI50 (SNB-19): > 100 µM (inactive)
GI50 (SNB-75): > 100 µM (inactive)

COc1ccc(NC(=O)/C(=N\NC(=O)C[n+]2ccccc2)c2c(O)c3ccc(O)cc3oc2=O)c([N+](=O)[O-])c1
GI50 (786-0): > 100 µM (inactive)
GI50 (ACHN): > 100 µM (inactive)
GI50 (CCRF-CEM): > 100 µM (inactive)
GI50 (DU-145): > 100 µM (inactive)
GI50 (HCC 2998): > 100 µM (inactive)
GI50 (HCT-116): > 100 µM (inactive)
GI50 (HOP-92): 32.3 µM (inactive)
GI50 (Hs-578T): > 100 µM (inactive)
GI50 (K562): > 100 µM (inactive)
GI50 (LOX IMVI): > 100 µM (inactive)
GI50 (M14): > 100 µM (inactive)
GI50 (MCF7): > 100 µM (inactive)
GI50 (MOLT-4): 85.5 µM (inactive)
GI50 (OVCAR-3): > 100 µM (inactive)
GI50 (OVCAR-5): > 100 µM (inactive)
GI50 (PC-3): > 100 µM (inactive)
GI50 (SF-268): > 100 µM (inactive)
GI50 (SF-295): > 100 µM (inactive)
GI50 (SNB-19): > 100 µM (inactive)
GI50 (SNB-75): 92 µM (inactive)

CC(C)=CCCC(C)C1=C(O)C(=O)C(C)=CC1=O (configuration not stated)
GI50 (786-0): 5.86 µM (inactive)
GI50 (ACHN): 1.88 µM (inactive)
GI50 (CCRF-CEM): 0.614 µM (active)
GI50 (DU-145): 17.6 µM (inactive)
GI50 (HCC 2998): 12.8 µM (inactive)
GI50 (HCT-116): 4.71 µM (inactive)
GI50 (HOP-92): 1.73 µM (inactive)
GI50 (Hs-578T): 25.1 µM (inactive)
GI50 (K562): 0.336 µM (active)
GI50 (LOX IMVI): 3.66 µM (inactive)
GI50 (M14): 17.2 µM (inactive)
GI50 (MCF7): 5.74 µM (inactive)
GI50 (MOLT-4): 1.8 µM (inactive)
GI50 (OVCAR-3): 7.53 µM (inactive)
GI50 (OVCAR-5): 16.4 µM (inactive)
GI50 (PC-3): 17.4 µM (inactive)
GI50 (SF-268): 20.2 µM (inactive)
GI50 (SF-295): 34 µM (inactive)
GI50 (SNB-19): 38.1 µM (inactive)
GI50 (SNB-75): 18.4 µM (inactive)
